In brackets after ≈: the same amount, converted by molar mass. Activity calls are given as the source filed them. The calls are words filed in the database; no cut-off is given here.
How the values were obtained:
Mycobacterium leprae [1] = test: Inhibition of Mycobacterium […] B D205N mutant assessed as DNA supercoiling inhibition
Mycobacterium leprae [2] = test: Inhibition of Mycobacterium leprae DNA gyrase subunit A A91V mutant assessed as DNA supercoiling inhibition
Mycobacterium leprae [3] = test: Selectivity index, ratio of IC50 for Mycobacterium leprae DNA gyrase subunit A A91V mutant to IC50 for Mycobacterium leprae wild type DNA gyrase A2B2
Mycobacterium leprae [4] = test: Inhibition of Mycobacterium leprae DNA gyrase subunit A G89C mutant assessed as DNA supercoiling inhibition
Mycobacterium leprae [5] = test: Inhibition of Mycobacterium leprae wild type DNA gyrase A2B2 assessed as DNA supercoiling inhibition
Mycobacterium leprae [6] = test: (§1) Inhibition of Mycobacterium […] A A91V mutant assessed as formation of DNA cleavable complex
Mycobacterium leprae [7] = test: Inhibition of Mycobacterium leprae wild type DNA gyrase A2B2 assessed as formation of DNA cleavable complex
Mycobacterium leprae [8] = test: Selectivity index, ratio of CC25 for Mycobacterium leprae DNA gyrase subunit A A91V mutant to CC25 for Mycobacterium leprae wild type DNA gyrase A2B2 by DNA cleavage assay
[9] = tested on: Mycobacterium leprae [A91V]; test: as §1
Mycobacterium leprae [10] = test: Inhibition of Mycobacterium […] B D205N mutant assessed as formation of DNA cleavable complex
Mycobacterium leprae [11] = test: Selectivity index, ratio of IC50 for Mycobacterium leprae DNA gyrase subunit A G89C mutant to IC50 for Mycobacterium leprae wild type DNA gyrase A2B2

Row | Compound | IC50 (Mycobacterium leprae [1]) [µg/mL] | IC50 (Mycobacterium leprae [2]) [µg/mL] | fold change (FC) (Mycobacterium leprae [3]) | IC50 (Mycobacterium leprae [4]) [µg/mL] | IC50 (Mycobacterium leprae [5]) [µg/mL] | CC25 (Mycobacterium leprae [6]) [µg/mL] | CC25 (Mycobacterium leprae [7]) | fold change (FC) (Mycobacterium leprae [8]) | CC25 [9] | CC25 (Mycobacterium leprae [10]) | fold change (FC) (Mycobacterium leprae [11])
1 | COc1c(N2CCNC(C)C2)c(F)cc2c(=O)c(C(=O)O)cn(C3CC3)c12 (stereo unspecified) [GATIFLOXACIN] | 4.5 (≈ 12 µM) | 20 (≈ 53.3 µM) | 5 | 20 (≈ 53.3 µM) | 3.5 (≈ 9.32 µM) | 4 (≈ 10.7 µM) | 0.3 µg/mL (≈ 0.799 µM) | 12 | – | – | –
2 | CCn1cc(C(=O)O)c(=O)c2ccc(C)nc21 [NALIDIXIC ACID] | 600 (≈ 2580 µM) | 170 (≈ 732 µM) | – | 150 (≈ 646 µM) | – | – | inactive | – | inactive | inactive | –
3 | CO[C@@H]1[C@@H](OC(N)=O)[C@@H](O)[C@H](Oc2ccc3c(O)c(NC(=O)c4ccc(O)c(CC=C(C)C)c4)c(=O)oc3c2C)OC1(C)C [NOVOBIOCIN] | 0.3 (≈ 0.49 µM) | 0.2 (≈ 0.326 µM) | – | 0.3 (≈ 0.49 µM) | 0.25 (≈ 0.408 µM) | – | – | – | – | – | –
4 | CC1COc2c(N3CCN(C)CC3)c(F)cc3c(=O)c(C(=O)O)cn1c23 (stereo unspecified) [OFLOXACIN] | 20 (≈ 55.3 µM) | 80 (≈ 221 µM) | 5 | 160 (≈ 443 µM) | 15 (≈ 41.5 µM) | 110 (≈ 304 µM) | 9 µg/mL (≈ 24.9 µM) | 12 | – | 8 µg/mL (≈ 22.1 µM) | –
5 | CCn1cc(C(=O)O)c(=O)c2cc3c(cc21)OCO3 [OXOLINIC ACID] | 700 (≈ 2680 µM) | 200 (≈ 766 µM) | – | 180 (≈ 689 µM) | 400 (≈ 1530 µM) | – | inactive | – | inactive | inactive | –
6 | COc1c(N2C[C@@H]3CCCN[C@@H]3C2)c(F)cc2c(=O)c(C(=O)O)cn(C3CC3)c12 [MOXIFLOXACIN] | – | 25 (≈ 62.3 µM) | 5 | 30 (≈ 74.7 µM) | 6 (≈ 14.9 µM) | – | – | – | – | – | 3
7 | C[C@H]1NCc2cc(-c3ccc4c(=O)c(C(=O)O)cn(C5CC5)c4c3OC(F)F)ccc21 [GARENOXACIN] | 16 (≈ 37.5 µM) | 8 (≈ 18.8 µM) | – | 5 (≈ 11.7 µM) | 6 (≈ 14.1 µM) | 17 (≈ 39.9 µM) | 1 µg/mL (≈ 2.35 µM) | 17 | – | – | –

Reference: ChEMBL document CHEMBL1153562, “Are all the DNA gyrase mutations found in Mycobacterium leprae clinical strains involved in resistance to fluoroquinolones?” (Antimicrob Agents Chemother, 2008)
